Usually IC50 stands for the concentration needed to halve the response being measured. The CC50 is the concentration at which the toxic effect on the cells reaches its halfway point. The low end stands for greater toxicity to the cells, the high end for lower toxicity to the cells.

Where two headings read alike, the source gives them in different places.

Holding throughout (assay type): cell-based
Series [1] relates to HBeAg. Briefly: PHH HBV natural infection assay, HBeAg (alphalisa). As for the experimental part:
(§1) Detailed procedures regarding primary human hepatocyte (PHH) HBV natural infection assay are described as below. One tube of frozen PHH (10 million cells) is thawed in 37° C. water bath and then transferred to 20 mL of PHH thawing medium (Sigma, InVitroGRO HT Medium, Cat. S03319) with gently mixing. The cells were then centrifuged at […] for 5 min, the supernatant was discarded and the tube was refilled with 25 mL of PHH plating medium (Sigma, InVitroGRO CP Medium, Cat. S03317). The tube was shaken very gently to re-suspend all cells, and then 50 μl of cells were transferred to each well 384-well collagen I coated plate with appropriate liquid handling equipment, e.g. Integra VIAFLO384 or Agilent Bravo. The cells were then cultured for 24 hours in a cell incubator. For HBV infection, after PHH attachment on the culture plate, the plating medium was removed and replenished with PHH culture medium containing HBV virus. The PHH culture medium was prepared with Dulbecco's Modified Eagle Medium (DMEM)/F12 (1:1 in volume ratio) containing 10% fetal bovine serum (Gibco, Cat. 10099141), 5 ng/mL human epidermal growth factor (Gibco, Cat.PHG0311L), 20 ng/mL dexamethasone (Sigma, Cat.D4902-100 mg), 250 ng/mL human recombinant insulin (Gibco, Cat.41400045) and 100 U/mL penicillin. HBV virus at 200 genome equivalent (GE) per cell with 4% PEG8000 (Sigma, Cat.P1458) containing culture medium were added to the PHH culture medium for infection. The cells were then cultured for 24 hours in cell incubator. Then the cell culture supernatant was removed. The HBV-infected PHH were cultured with sandwich culture method with PHH culture medium containing 1% DMSO and 0.25 mg/mL matrix gel for 72 hours. The supernatant was then refreshed with PHH culture medium containing different concentrations of testing compounds for two times with 72-hour interval. At the end of treatment, the supernatant was collected for viral markers measurements, including HBsAg, HBeAg, HBV DNA and cytotoxicity. HBsAg and HBeAg were detected using alphalisa method using their specific antibodies. For HBV DNA detection, HBV DNA Quantitative Fluorescence Diagnostic Kit (Sansure Biotech Inc.) was used following the manufacture's protocol. Cytotoxicity was determined using Cell Counting Kit-8 (CCK8, Dojindo Molecular Technologies, Inc.).
(§2) The compounds of the present invention were tested for their capacity to inhibit HBsAg and HBeAg as described herein.

Series [2] in a line: PHH natural infection assay, cytotoxicity (Cell Counting Kit-8). The settings on record: human, HBV-infected primary human hepatocytes, CCK8, end of treatment. As for the experimental part:
as §1

Series [3] has as its system HBsAg. As to the kind of experiment: PHH HBV natural infection assay, HBsAg (alphalisa). As for the experimental part:
as §1, §2
(In general: In Alpha technology, singlet oxygen from a donor bead excites a nearby acceptor bead.)

The mark [4] stands for this setting: Hepatitis B virus, Hepatocyte, 72 h, read-out: HbeAg IC50, HBV-infected primary human hepatocytes, supernatant, compound medium refreshed two times with 72-hour interval.
The mark [5] stands for this setting: Hepatitis B virus, Hepatocyte, 72 h, read-out: HBsAg IC50, HBV-infected primary human hepatocytes, supernatant, compound medium refreshed two times with 72-hour interval.

As for `[H][C@]1(NC(=O)c2ccc(S(C)(=O)=O)o2)C[C@@]2(C1)C[C@]([H])(c1nc3cc(Cl)ccc3o1)C2` (single isomer, unassigned) [Example 15-a, (Sa)—N-[6-(5-chloro-1,3-benzoxazol-2-yl)spiro[3.3]heptan-2-yl]-5-methylsulfonyl-furan-2-carboxamide], the half-maximal inhibitory concentration (IC50) in series [1] (read-out: HbeAg IC50, HBV-infected primary human hepatocytes, supernatant, compound medium refreshed two times with 72-hour interval) was 3.94 µM; in series [3] (read-out: HBsAg IC50, HBV-infected primary human hepatocytes, supernatant, compound medium refreshed two times with 72-hour interval), 5.19 µM. Moreover, in series [2], the cytotoxic concentration (CC50) at 144 h stood at 84 µM.

As for `CS(=O)(=O)c1ccc(C(=O)NC2CC3(C2)CC(c2nc4cc(Cl)ccc4o2)C3)s1` (stereo not drawn) [Example 45, N-[6-(5-chloro-1,3-benzoxazol-2-yl)spiro[3.3]heptan-2-yl]-5-methylsulfonyl-thiophene-2-carboxamide], the half-inhibitory concentration (IC50) in series [1] (setting [4]) was 1.9 µM; in series [3] (setting [5]), 2.21 µM. In series [2], this compound displayed a CC50 at 144 h greater than 100 µM.

On to `O=C(NC1CC2(C1)CC(c1nc3cc(Cl)ccc3o1)C2)c1ccc(S(=O)(=O)NC(=O)C2COC2)o1` (stereo not drawn) [Example 86, N-[6-(5-chloro-1,3-benzoxazol-2-yl)spiro[3.3]heptan-2-yl]-5-(oxetane-3-carbonylsulfamoyl)furan-2-carboxamide], for which the IC50 in series [1] (setting [4]) turned out to be 2.19 µM; in series [3] (setting [5]), 2.99 µM. In series [2], this compound came in with a CC50 at 144 h greater than 10 µM.

Take `N=S(=O)(c1ccc(C(=O)NC2CC3(C2)CC(c2nc4cc(Cl)ccc4o2)C3)o1)N1CCOCC1` (stereo not drawn) [Example 67, N-[6-(5-chloro-1,3-benzoxazol-2-yl)spiro[3.3]heptan-2-yl]-5-(morpholinosulfonimidoyl)furan-2-carboxamide]: the values for the half-maximal inhibitory concentration (IC50) in series [1] (setting [4]) and in series [3] (setting [5]) were 3.65 µM and 6.24 µM, respectively. In series [2], this compound showed a CC50 at 144 h greater than 10 µM.

For the compound `O=C(NC1CC2(C1)CC(c1nc3cc(Cl)ccc3o1)C2)c1ccc(S(=O)(=O)CC2CN(C(=O)OCc3ccccc3)C2)o1` (stereo not drawn) [Example 26, benzyl 3-[[5-[[6-(5-chloro-1,3-benzoxazol-2-yl)spiro[3.3]heptan-2-yl]carbamoyl]-2-furyl]sulfonylmethyl]azetidine-1-carboxylate], the concentration for half-maximal inhibition (IC50) amounted to 0.329 µM in series [1] (setting [4]) and 0.365 µM in series [3] (setting [5]). For the same compound, in series [2], the CC50 at 144 h was greater than 100 µM.

Regarding `O=C(NC1CC2(C1)CC(c1nc3ccc(Cl)cc3o1)C2)c1ccc(C(F)(F)F)o1` (stereo not drawn) [Example 46, N-[6-(6-chloro-1,3-benzoxazol-2-yl)spiro[3.3]heptan-2-yl]-5-(trifluoromethyl)furan-2-carboxamide], the half-maximal inhibitory concentration (IC50) in series [1] (setting [4]) was determined as 2.81 µM; in series [3] (setting [5]) it was 5.83 µM. In series [2], this compound gave a CC50 at 144 h of 89.8 µM.

As to `COCCOCC(=O)NS(=O)(=O)c1ccc(C(=O)N[C@H]2CC3(C2)C[C@H](c2nc4cc(Cl)ccc4o2)C3)o1` (single isomer, unassigned) [Example 78, (Sa)—N-[6-(5-chloro-1,3-benzoxazol-2-yl)spiro[3.3]heptan-2-yl]-5-[[2-(2-methoxyethoxy)acetyl]sulfamoyl]furan-2-carboxamide, or (Ra)—N-[6-(5-chloro-1,3-benzoxazol-2-yl)spiro[3.3]heptan-2-yl]-5-[[2-(2-methoxyethoxy)acetyl]sulfamoyl]furan-2-carboxamide], the values for the IC50 in series [1] (setting [4]) and in series [3] (setting [5]) were 0.929 µM and 2.45 µM, respectively. In series [2], this compound had a CC50 at 144 h greater than 100 µM.

In the case of `CC(C)CS(=O)(=O)c1ccc(C(=O)NC2CC3(C2)CC(c2nc4cc(Cl)ccc4o2)C3)o1` (stereo not drawn) [Example 22, N-[6-(5-chloro-1,3-benzoxazol-2-yl)spiro[3.3]heptan-2-yl]-5-isobutylsulfonyl-furan-2-carboxamide], the IC50 in series [1] (setting [4]) worked out at 0.264 µM; in series [3] (setting [5]) it was 0.506 µM. Also, in series [2], the 50% cytotoxic concentration (CC50) at 144 h was 75.6 µM.

As for `COCCS(=O)(=O)c1ccc(C(=O)NC2CC3(C2)CC(c2nc4cc(Cl)ccc4o2)C3)o1` (stereo not drawn) [Example 28, N-[6-(5-chloro-1,3-benzoxazol-2-yl)spiro[3.3]heptan-2-yl]-5-(2-methoxyethylsulfonyl)furan-2-carboxamide], the IC50 turned out to be 0.509 µM in series [1] (setting [4]) and 0.758 µM in series [3] (setting [5]). Further, in series [2], the CC50 at 144 h was 94.2 µM.

Take `COCC(=O)NS(=O)(=O)c1ccc(C(=O)N[C@H]2CC3(C2)C[C@H](c2nc4cc(Cl)ccc4o2)C3)o1` (single isomer, unassigned) [Example 73, (Sa)—N-[6-(5-chloro-1,3-benzoxazol-2-yl)spiro[3.3]heptan-2-yl]-5-[(2-methoxyacetyl)sulfamoyl]furan-2-carboxamide, or (Ra)—N-[6-(5-chloro-1,3-benzoxazol-2-yl)spiro[3.3]heptan-2-yl]-5-[(2-methoxyacetyl)sulfamoyl]furan-2-carboxamide]: the IC50 was found to be 0.256 µM in series [1] (setting [4]) and 0.416 µM in series [3] (setting [5]). This compound gave a CC50 at 144 h in series [2] greater than 100 µM.

Take `O=C(NC1CC2(C1)CC(c1nc3cc(Cl)ccc3o1)C2)c1cc(C(F)(F)F)n[nH]1` (stereo not drawn) [Example 12, N-[6-(5-chloro-1,3-benzoxazol-2-yl)spiro[3.3]heptan-2-yl]-3-(trifluoromethyl)-1H-pyrazole-5-carboxamide]: the values for the half-maximal inhibitory concentration (IC50) in series [1] (setting [4]) and in series [3] (setting [5]) were 6.86 µM and 3.96 µM, respectively. This compound registered a half-maximal cytotoxic concentration (CC50) at 144 h in series [2] of 30.2 µM.

With `O=C(NC1CC2(C1)CC(c1nc3cc(Cl)ccc3o1)C2)c1ccc(S(=O)(=O)NC(=O)C2CS(=O)(=O)C2)o1` (stereo not drawn) [Example 83, N-[6-(5-chloro-1,3-benzoxazol-2-yl)spiro[3.3]heptan-2-yl]-5-[(1,1-dioxothietane-3-carbonyl)sulfamoyl]furan-2-carboxamide], the half-inhibitory concentration (IC50) was 1.97 µM in series [1] (setting [4]) and 3.3 µM in series [3] (setting [5]). In addition, the CC50 at 144 h in series [2] was greater than 10 µM.

`COCCOCCOCC(=O)NS(=O)(=O)c1ccc(C(=O)N[C@H]2CC3(C2)C[C@H](c2nc4cc(Cl)ccc4o2)C3)o1` (single isomer, unassigned) [Example 79, (Sa)—N-[6-(5-chloro-1,3-benzoxazol-2-yl)spiro[3.3]heptan-2-yl]-5-[[2-[2-(2-methoxyethoxy)ethoxy]acetyl]sulfamoyl]furan-2-carboxamide, or (Ra)—N-[6-(5-chloro-1,3-benzoxazol-2-yl)spiro[3.3]heptan-2-yl]-5-[[2-[2-(2-methoxyethoxy)ethoxy]acetyl]sulfamoyl]furan-2-carboxamide]: the values for the 50% inhibitory concentration (IC50) in series [1] (setting [4]) and in series [3] (setting [5]) were 4.65 µM and 6.13 µM, respectively. The compound further yielded a CC50 at 144 h in series [2] greater than 10 µM.

Regarding `O=C(N[C@H]1CC2(C1)C[C@H](c1nc3cc(Cl)ccc3o1)C2)c1ccc(S(=O)(=O)NC(=O)C2CC2)o1` (single isomer, unassigned) [Example 71, (Sa)—N-[6-(5-chloro-1,3-benzoxazol-2-yl)spiro[3.3]heptan-2-yl]-5-(cyclopropanecarbonylsulfamoyl)furan-2-carboxamide, or (Ra)—N-[6-(5-chloro-1,3-benzoxazol-2-yl)spiro[3.3]heptan-2-yl]-5-(cyclopropanecarbonylsulfamoyl)furan-2-carboxamide], the half-maximal inhibitory concentration (IC50) is 3.28 µM in series [1] (setting [4]) and 3.66 µM in series [3] (setting [5]). Besides, the 50% cytotoxic concentration (CC50) at 144 h in series [2] was greater than 100 µM.

In the case of `CC(C)c1ccc(C(=O)NC2CC3(C2)CC(c2nc4cc(Cl)ccc4o2)C3)o1` (stereo not drawn) [Example 7, N-[6-(5-chloro-1,3-benzoxazol-2-yl)spiro[3.3]heptan-2-yl]-5-isopropyl-furan-2-carboxamide], the concentration for half-maximal inhibition (IC50) turned out to be 1.34 µM in series [1] (setting [4]) and 3.57 µM in series [3] (setting [5]). For the same compound, in series [2], it took 85.9 µM to reach half-maximal cytotoxicity (CC50 at 144 h).

On to `CCOC(=O)NS(=O)(=O)c1ccc(C(=O)N[C@H]2CC3(C2)C[C@H](c2nc4cc(Cl)ccc4o2)C3)o1` (single isomer, unassigned) [Example 74, (Sa)-ethyl N-[[5-[[6-(5-chloro-1,3-benzoxazol-2-yl)spiro[3.3]heptan-2-yl]carbamoyl]-2-furyl]sulfonyl]carbamate, or (Ra)-ethyl N-[[5-[[6-(5-chloro-1,3-benzoxazol-2-yl)spiro[3.3]heptan-2-yl]carbamoyl]-2-furyl]sulfonyl]carbamate], for which the IC50 in series [1] (setting [4]) stood at 5.92 µM; in series [3] (setting [5]), 6.67 µM. This compound also showed a CC50 at 144 h in series [2] greater than 10 µM.

On to `O=C(NC1CC2(C1)CC(c1nc3cc(Cl)ccc3o1)C2)c1ccc(S(=O)(=O)NC(=O)C2CCCCC2)o1` (stereo not drawn) [Example 82, N-[6-(5-chloro-1,3-benzoxazol-2-yl)spiro[3.3]heptan-2-yl]-5-(cyclohexanecarbonylsulfamoyl)furan-2-carboxamide], for which the IC50 in series [1] (setting [4]) was 0.224 µM; in series [3] (setting [5]) it was 0.461 µM. Also, the CC50 at 144 h in series [2] worked out at 85.7 µM.

Source of the values: patent publication US20230286969A1, “AROMATIC SPIRO RING AMIDE DERIVATIVES FOR THE TREATMENT AND PROPHYLAXIS OF HEPATITIS B VIRUS INFECTION” (Hoffmann-La Roche Inc., priority 2020, published 2023).
